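1) Cells in 96-well plates. 2) Compound, 48 h, 5 concentrations. 3) Linear interpolation between surrounding doses. 4) Unreached endpoint = highest concentration. Here, GI50 denotes the concentration required for 50% inhibition of growth.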 The source made the active and inactive calls. No stated cut-off is given here; in the data, active = GI50 up to about 1.1 µM and inactive = higher.
What was measured:
Assay in all cases: inhibition of tumour cell growth, NCI panel, 48 h
CCRF-CEM = system: CCRF-CEM
HCC 2998 = system: HCC 2998
HCT-116 = system: HCT-116
Hs-578T = system: Hs-578T
K562 = system: K562
MOLT-4 = system: MOLT-4
NCI-H226 = system: NCI-H226
NCI-H23 = system: NCI-H23
RPMI-8226 = system: RPMI-8226
RXF 393 = system: RXF 393
SF-539 = system: SF-539
SK-MEL-5 = system: SK-MEL-5
TK-10 = system: TK-10
U-251 = system: U-251
UACC-257 = system: UACC-257
CAKI-1 = system: CAKI-1
COLO 205 = system: COLO 205
MDA-MB-231 = system: MDA-MB-231
SK-OV-3 = system: SK-OV-3
BT-549 = system: BT-549

SMILES | GI50 (CCRF-CEM) | GI50 (HCC 2998) | GI50 (HCT-116) | GI50 (Hs-578T) | GI50 (K562) | GI50 (MOLT-4) | GI50 (NCI-H226) | GI50 (NCI-H23) | GI50 (RPMI-8226) | GI50 (RXF 393) | GI50 (SF-539) | GI50 (SK-MEL-5) | GI50 (TK-10) | GI50 (U-251) | GI50 (UACC-257) | GI50 (CAKI-1) | GI50 (COLO 205) | GI50 (MDA-MB-231) | GI50 (SK-OV-3) | GI50 (BT-549)
O=[N+]([O-])c1cccnc1NCC1(CO)CCCC1 | 29.4 µM (inactive) | 18.8 µM (inactive) | 26 µM (inactive) | 24.5 µM (inactive) | 18.5 µM (inactive) | 15.6 µM (inactive) | 25.6 µM (inactive) | 32.6 µM (inactive) | 20.2 µM (inactive) | > 10 µM (inactive) | 21.6 µM (inactive) | 17.1 µM (inactive) | 27.2 µM (inactive) | 16.9 µM (inactive) | 20.6 µM (inactive) |  |  |  |  | 
CC(=O)OCC1OC(n2c(C)c(C(C)=O)c(-c3cccc4ccccc34)c(C#N)c2=S)C(OC(C)=O)C(OC(C)=O)C1OC(C)=O (centres undefined) | > 100 µM (inactive) | > 100 µM (inactive) | > 100 µM (inactive) |  | > 100 µM (inactive) | > 100 µM (inactive) | > 100 µM (inactive) | > 100 µM (inactive) |  | > 100 µM (inactive) | > 100 µM (inactive) | 28.7 µM (inactive) | > 100 µM (inactive) | > 100 µM (inactive) | > 100 µM (inactive) | > 100 µM (inactive) | > 100 µM (inactive) | > 100 µM (inactive) | > 100 µM (inactive) | 
COc1cc2c(c(OC)c1OC)-c1ccc(SC)c(=O)cc1[C@@H](NCc1ccc([N+](=O)[O-])cc1)CC2 | 0.00277 µM (active) | 0.00299 µM (active) | 0.00369 µM (active) |  | 0.00318 µM (active) | 0.00478 µM (active) | 0.00284 µM (active) | 0.00324 µM (active) | 0.00349 µM (active) | 0.00241 µM (active) | 0.00271 µM (active) | 0.00421 µM (active) | 0.0423 µM (active) | 0.00416 µM (active) | 0.00516 µM (active) | 0.01 µM (active) | 0.00396 µM (active) |  | 0.00315 µM (active) | 
C/C=C/C#CC#C/C=C/C=C/C(O)CCO (centres undefined) | > 23.1 µM (inactive) | > 23.1 µM (inactive) | > 23.1 µM (inactive) |  | > 23.1 µM (inactive) | 17.5 µM (inactive) | > 23.1 µM (inactive) | > 23.1 µM (inactive) | > 23.1 µM (inactive) | > 23.1 µM (inactive) | > 23.1 µM (inactive) | > 23.1 µM (inactive) | > 23.1 µM (inactive) | > 23.1 µM (inactive) | > 23.1 µM (inactive) | > 23.1 µM (inactive) | > 23.1 µM (inactive) |  | > 23.1 µM (inactive) | 
Cc1ccc(S(=O)(=O)C(CC(NC=O)S(=O)(=O)c2ccc(C)cc2)NC=O)cc1 (centres undefined) | 62.4 µM (inactive) | > 100 µM (inactive) | > 100 µM (inactive) |  | > 100 µM (inactive) | > 100 µM (inactive) | > 100 µM (inactive) | > 100 µM (inactive) | > 100 µM (inactive) | > 100 µM (inactive) | > 100 µM (inactive) | > 100 µM (inactive) | > 100 µM (inactive) | > 100 µM (inactive) | > 100 µM (inactive) | > 100 µM (inactive) | > 100 µM (inactive) |  | > 100 µM (inactive) | 
CCC(C(=O)C(=O)OC)P1(=O)OC(C)(C)CN1C(C)(C)C (centres undefined) |  | > 100 µM (inactive) | > 100 µM (inactive) |  | > 100 µM (inactive) | > 100 µM (inactive) | > 100 µM (inactive) | > 100 µM (inactive) | > 100 µM (inactive) |  | > 100 µM (inactive) | > 100 µM (inactive) | > 100 µM (inactive) | > 100 µM (inactive) | > 100 µM (inactive) | > 100 µM (inactive) | > 100 µM (inactive) | > 100 µM (inactive) | > 100 µM (inactive) | > 100 µM (inactive)
c1ccc2cc(C3NCCc4nc[nH]c43)ccc2c1 (centres undefined) | 35.6 µM (inactive) | 59.6 µM (inactive) | 67.3 µM (inactive) |  | 29.6 µM (inactive) | 25.1 µM (inactive) | > 100 µM (inactive) | > 100 µM (inactive) | 45.5 µM (inactive) | 61.1 µM (inactive) | 89.1 µM (inactive) | 19.1 µM (inactive) | 28 µM (inactive) | 90.8 µM (inactive) | 26.7 µM (inactive) | 60.3 µM (inactive) | 24.9 µM (inactive) |  | > 100 µM (inactive) | 
C[C@@]12[C@H]3CC[C@@H]1[C@H](O)C(=O)N2CC3 | > 100 µM (inactive) | > 100 µM (inactive) |  | > 100 µM (inactive) | > 100 µM (inactive) | > 100 µM (inactive) | > 100 µM (inactive) | > 100 µM (inactive) | > 100 µM (inactive) | > 100 µM (inactive) | > 100 µM (inactive) | > 100 µM (inactive) | > 100 µM (inactive) | > 100 µM (inactive) | > 100 µM (inactive) | > 100 µM (inactive) | > 100 µM (inactive) | > 100 µM (inactive) | > 100 µM (inactive) | 
COC(=O)CCCc1ccc2c(c1)CC1(C2)Cc2cc3c(cc2C1)CCCC3 |  | 26.7 µM (inactive) | 3.8 µM (inactive) | 29.9 µM (inactive) | 22.9 µM (inactive) | 11.6 µM (inactive) | 38.1 µM (inactive) | 61.9 µM (inactive) | 16 µM (inactive) | 24.7 µM (inactive) | 37.8 µM (inactive) | 19.2 µM (inactive) | > 100 µM (inactive) | 40.5 µM (inactive) | 33.8 µM (inactive) |  | 20.5 µM (inactive) | > 100 µM (inactive) | > 100 µM (inactive) | 
CCc1ccccc1NC(=O)C1=C(C)NC(C)=C(C(=O)Nc2c(CC)cccc2CC)C1c1ccc2c(c1)OCO2 (centres undefined) | 19.1 µM (inactive) | 16.5 µM (inactive) | 16.8 µM (inactive) |  | 22.7 µM (inactive) | 19.1 µM (inactive) | 19.1 µM (inactive) | 16.7 µM (inactive) | 15.8 µM (inactive) | 12.4 µM (inactive) | 21.2 µM (inactive) | 14.6 µM (inactive) | 22.3 µM (inactive) | 14.6 µM (inactive) | 17.7 µM (inactive) | 19.5 µM (inactive) | 19.5 µM (inactive) |  | 34.5 µM (inactive) | 
O=C1CCCc2cc3c(cc21)CC1(C3)Cc2ccc3c(c2C1)C(=O)CCC3 (centres undefined) | 6.92 µM (inactive) | 71.8 µM (inactive) | 12.2 µM (inactive) | 65.6 µM (inactive) | 3.31 µM (inactive) | 4.12 µM (inactive) | 6.38 µM (inactive) | 22.5 µM (inactive) | 7.59 µM (inactive) | 37.1 µM (inactive) | 28.3 µM (inactive) | 2.2 µM (inactive) | 23.9 µM (inactive) | 39.2 µM (inactive) | 5.24 µM (inactive) | 10.5 µM (inactive) | 14.4 µM (inactive) | 29.2 µM (inactive) | > 100 µM (inactive) | 
Cc1nc(O)nc(N/N=C/c2c3ccccc3c(Cl)c3ccccc23)c1C(=O)Nc1ccc(Cl)cc1 | 32.3 µM (inactive) | 44.6 µM (inactive) | 65.9 µM (inactive) |  | 68.5 µM (inactive) | 31.3 µM (inactive) | 74 µM (inactive) | > 100 µM (inactive) | > 100 µM (inactive) |  |  | 41.8 µM (inactive) | 47.6 µM (inactive) | 37.9 µM (inactive) | > 100 µM (inactive) | 99.5 µM (inactive) |  | > 100 µM (inactive) |  | > 100 µM (inactive)
CSc1nnc(C(C#N)C#N)nn1 | > 100 µM (inactive) | > 100 µM (inactive) | > 100 µM (inactive) |  | > 100 µM (inactive) | > 100 µM (inactive) | > 100 µM (inactive) | > 100 µM (inactive) | > 100 µM (inactive) | > 100 µM (inactive) | > 100 µM (inactive) | > 100 µM (inactive) | > 100 µM (inactive) | > 100 µM (inactive) | > 100 µM (inactive) | > 100 µM (inactive) | > 100 µM (inactive) |  | > 100 µM (inactive) | 
N=C1OC(c2ccc3c(c2)OCO3)C(NNS(=O)(=O)c2ccccc2)=C1O (centres undefined) | 44.6 µM (inactive) | > 100 µM (inactive) | > 100 µM (inactive) |  | > 100 µM (inactive) | > 100 µM (inactive) | > 100 µM (inactive) | 52.5 µM (inactive) | 87.1 µM (inactive) | > 100 µM (inactive) | > 100 µM (inactive) | 38.1 µM (inactive) | > 100 µM (inactive) | 54.7 µM (inactive) | > 100 µM (inactive) | > 100 µM (inactive) | > 100 µM (inactive) |  | > 100 µM (inactive) | 
CC(C)(C)Nc1noc(=O)n1C(C)(C)C | > 100 µM (inactive) |  | > 100 µM (inactive) | > 100 µM (inactive) | > 100 µM (inactive) | > 100 µM (inactive) | > 100 µM (inactive) | > 100 µM (inactive) | > 100 µM (inactive) | > 100 µM (inactive) | > 100 µM (inactive) | > 100 µM (inactive) | > 100 µM (inactive) | > 100 µM (inactive) | > 100 µM (inactive) | > 100 µM (inactive) | > 100 µM (inactive) | > 100 µM (inactive) | > 100 µM (inactive) | 
O=c1ssc2ncccc12 | 31.5 µM (inactive) | 19.8 µM (inactive) | 15.2 µM (inactive) | 46.3 µM (inactive) | 9.66 µM (inactive) | 64 µM (inactive) | 0.212 µM (active) | 28.8 µM (inactive) | 12.9 µM (inactive) | 18.1 µM (inactive) | 30.3 µM (inactive) | 13.2 µM (inactive) | 35.5 µM (inactive) | 15.7 µM (inactive) | 20.3 µM (inactive) | 56.6 µM (inactive) | 17.9 µM (inactive) | 11.9 µM (inactive) | > 100 µM (inactive) | 
